Values of other authors, collected in patent US20200353179A1, “Device for Deterring Abuse of Drugs” (EIGHTY EIGHT PHARMA, INC., priority 2017, published 2020).
Where a name gives a salt, the structure may show the parent alone. Read-outs that look alike come from different tables or passages of the source.

Experiments:
[1] = test system: pharmacologic effects of intravenously administered heroin
[2] = 800 mg daily for up to one week

Compound: O=C1CC[C@@]2(O)[C@H]3Cc4ccc(O)c5c4[C@@]2(CCN3CC2CC2)[C@H]1O5 [naltrexone hydrochloride]
- duration of blockade of pharmacologic effects of heroin ([1]; 50 mg naltrexone hydrochloride, 25 mg intravenously administered heroin): ≤ 24 hours
- duration of blockade ([1]; doubling the dose of naltrexone hydrochloride): 48 h
- effect on the subjective effects of intravenously administered opioids ([1]; intravenously administered opioids): markedly attenuates or completely blocks, reversibly
- duration of blockade ([1]; tripling the dose of naltrexone hydrochloride): about 72 hours
- toxicity in human subjects [2]: no evidence of toxicity
- signs produced by high doses (animals; high doses, generally >1,000 mg/kg): salivation, depression/reduced activity, tremors, and convulsions
- cause of mortalities in animals (animals; high-dose naltrexone administration): tonic-clonic convulsions and/or respiratory failure
